# Laboratory results from US20090318396A1, “CORTICOSTEROID LINKED BETA-AGONIST COMPOUNDS FOR USE IN THERAPY” (priority 2008, published 2009).
# Key:
# [1] = system: carbachol-induced bronchoconstriction; assay: Carbachol-induced bronchoconstriction in sheep; format: in vivo; settings: Example 52 4.7 mg, Salmeterol 2.5 mg, mean ± s.e.m, n=4
# Procedure: Bronchoconstriction was evaluated as a function of increased pulmonary resistance following carbachol challenge. […] Test article was administered either by a pre-dosing or duration of action protocol. In the pre-dosing regimen, animals were dosed once daily for four days, with the last dose administered 1 hr before carbachol challenge. In the duration of action regimen, animals were dosed once daily for four days, with the last dose administered 24 hours before carbachol challenge. Test article and carbachol were administered by nebulized aerosol to intubated sheep.
# [2] = Drug levels in plasma, BALF and lung after IT administration in the rat
# [3] = system: Ascaris suum antigen-induced bronchoconstriction and airway hyperreactivity; assay: Ascaris suum-induced pulmonary responses in sheep; format: in vivo; settings: duration of action regimen
# Procedure: One breath unit is defined as one breath of a 1% w/v carbachol solution. Test article was administered either by a pre-dosing or duration of action protocol. In the pre-dosing regimen, animals were dosed once daily for four days, with the last dose administered 1 hr before antigen. In the duration of action regimen, animals were dosed once daily for four days, with the last dose administered 24 hours before antigen. Test article, Ascaris antigen, and carbachol were administered by nebulized aerosol to intubated sheep.
# [4] = Stability of steroid C-21 esters, carbonates and carbamates in rat lung homogenate; settings: for Mean [Parent] (nM) at 2 hrs, 37° C.: parent compound; for Mean % compound remaining at 2 hrs, 37° C.: 900 nM, n=3
# Procedure: Lungs from Fischer 344 rats were obtained fresh by overnight delivery at 4° C. from BioReclamation Inc. (Hicksville, N.Y.). Lungs were weighed and homogenized in a 1:3 w/v ratio with sterile phosphate buffered saline (PBS, 10 mM, pH 7.4) in glass vials on ice. After centrifugation at 3,000×g for 10 min at 4° C. the supernatant was decanted into sterile conical tubes and placed on ice. The total protein content of the supernatant was determined by the bicinchoninic acid (BCA) method (Pierce Biotechnology, Rockford, Ill.), using bovine serum albumin (BSA) as the standard. Lung homogenates were prepared to a final concentration of 1 mg total protein/mL in 10 mM PBS, pH 7.4.
# Heat-inactivation was achieved by incubation at 80° C. for 30 min, after which the homogenate was allowed to cool to room temperature, stored overnight at 4° C. The homogenate was used for the assay and standard curve preparations. Before use, each homogenate preparation was equilibrated for 15 min in a 37° C. water bath. […] DMSO (2.7 uL) added to 3 mL of temperature-equilibrated homogenate served as a control. Aliquots (100 uL) of homogenate+compound were added to 400 μL quenching solution consisting of 100% HPLC-grade acetonitrile+500 ng/mL glyburide for the zero time point (n=3 for each time point).
# The glyburide served as an internal LC/MS/MS standard. The remainder of each drug+homogenate solution was aliquoted into a 96-well tissue culture plates. After an additional 30 min and 120 min incubation at 37° C., 100 μL aliquots were added to 400 μL quenching solution. Denatured proteins in the quenching solution were separated by centrifugation at 3000×g for 2 min at 4° C., and 160 μL of the supernatants were transferred to new 96-well plate for analysis by LC/MS/MS. Collection plates were covered with plastic film and were kept on ice. For storage, covered plates were and kept stored at −80° C. until further use.
# An aliquot of 50 μL of each sample was diluted with 50 μL of water containing internal standard at 4° C. The diluted samples were then centrifuged for 20 minutes at 3000 rpm at 4° C. An aliquot of 20 μL of the solution was injected into the TSQ Ultra Quantum.
# LC/MS/MS system. The compounds were separated by HPLC using a HyPurity C18 HPLC column (30×2.1 mm, 5μ) from ThermoHypersil. A Multiplex LX-2 HPLC system (Cohesive Technologies, Franklin, Mass.) with two identical Agilent 1100 series binary pumps (P/N G1312A) were used for elution and separation. Samples were maintained at 4° C. in an HTS Pal autosampler (LEAP Technologies, Carrboro, N.C.) in order to reduce any potential spontaneous hydrolysis of the compounds before injection onto the HPLC. The analytes were eluted using the following mobile phases; Mobile phase A contained 1% acetonitrile in 10 mM ammonium formate aqueous solution with 1% formic acid. Mobile phase B contained 80% acetonitrile in 10 mM ammonium formate with 1% formic acid. The HPLC elution program used to elute the analytes was as follows:
# The samples were further analyzed by tandem mass spectrometry using a TSQ Quantum Ultra triple quadrupole mass spectrometer (Thermo Finnigan, San Jose, Calif.) using a selective reaction monitoring (SRM) scan type. The mass spectrometry parameters used were as follows:
# Nine-point standard curves for each test compound were prepared and analyzed in heat-inactivated lung homogenate. […] The data expressed in Table 2 represent the mean (n=3) percent remaining compound in both types of homogenate at 2 hours, 37° C.
# [5] = analyte after IT administration of Example 83, 1 mg/kg, 0.5 hr
# [6] = analyte after IT administration of Example 83, 1 mg/kg, 2.0 hr
# [7] = analyte after IT administration of Example 83, 1 mg/kg, 4.0 hr
SMILES,"Lung Resistance (% Increase) at 2% Carbachol ([1]; Duration of action regimen (last dose 24 hours before carbachol), Ciclesonide 2.2 mg + Salmeterol Xinafoate 2.5 mg)",Lung Resistance (% Increase) at 2% Carbachol ([1]; Predosing regimen (last dose 1 hr before carbachol)),"Plasma Conc ([2]; analyte after IT administration of Example 52, 3 mg/kg, 0.5 hr)","Plasma Conc ([2]; analyte after IT administration of Example 52, 3 mg/kg, 2.0 hr)","Plasma Conc ([2]; analyte after IT administration of Example 52, 3 mg/kg, 4.0 hr)","BALF Conc [2, 5]","Plasma Conc [2, 5]","BALF Conc [2, 6]","Plasma Conc [2, 6]","BALF Conc [2, 7]","Plasma Conc [2, 7]",Effect on late phase bronchoconstriction and development of airway hyperreactivity [3],"Mean [Parent] (nM) at 2 hrs, 37° C. ([4]; Active homogenate)","Mean % compound remaining at 2 hrs, 37° C. ([4]; Active rat lung homogenate)","Mean % compound remaining at 2 hrs, 37° C. ([4]; Inactive (heat-inactivated) rat lung homogenate)","Mean [Parent] (nM) at 2 hrs, 37° C. ([4]; Inactive homogenate)",melting point
OCc1cc(C(O)CNCCCCCCOCCCCc2ccccc2)ccc1O (centres unmarked) [salmeterol],594 ± 56 % Increase,352 ± 27 % Increase,BLQ,BLQ,BLQ,BLQ,BLQ,BLQ,BLQ,BLQ,BLQ,reduced efficacy,,,,,
"CCN(CC)Cc1ccc(C(=O)OCC(=O)[C@@]23O[C@H](C4CCCCC4)O[C@@H]2C[C@H]2[C@@H]4CCC5=CC(=O)C=C[C@]5(C)[C@H]4[C@@H](O)C[C@@]23C)cc1 [Example 30, 4-Diethylaminomethylbenzoic acid [[11β,16α]-[[((R)-cyclohexylmethylene)bis(oxy)]-11-hydroxypregna-1,4-diene-3,20-dion-21-yl]]ester]",,,,,,,,,,,,,102 nM,46%,51%,109 nM,123.5 °C (dec.)
